From PMC10054634, “Chemical Constituents of Thesium chinense Turcz and Their In Vitro Antioxidant, Anti-Inflammatory and Cytotoxic Activities” (Molecules, 2023)
“Also recorded” adds a separate entry of the source. Like-named read-outs stand apart in the source and are kept apart here.

Key:
[1] = Cytotoxicity in RAW 264.7 cells (CCK-8); details: mouse
Protocol: The cell viability was determined by the CCK-8 assay method. The cytotoxicity was calculated from the plotted results using untreated cells at 100%.

[2] = tested on: NO production in LPS-activated RAW 264.7 cells; experiment: Inhibition of NO production in LPS-activated RAW 264.7 cells (Griess reaction); type: cell-based; details: Mus musculus, read-out: IC50 (NO inhibitory activity)
Protocol: The macrophage RAW 264.7 cells were obtained from the Cell Bank of the Chinese Academy of Sciences (Shanghai, China). A total of 180 μL of RAW 264.7 cells (1 × 10^4) were plated respectively in each well of 96-well plate and cultured for 24 h, then the supernatant of the culture was discarded and 180 μL complete medium with 1 μg/mL LPS and different concentrations of test samples were added into triplicate wells for 24 h. The inhibition effects on LPS-stimulated NO production was evaluated by the Griess reaction assay. The experiments were performed in triplicate, and the data were expressed as the means ± SD of three independent experiments.

MKN45 = experiment: Cytotoxic assay (CCK-8), MKN45; type: cell-based, human; details: mean ± SD (n = 3)
Protocol: (§1) Four human cancer cell lines, A549, NCI-H292, SiHa and MKN45, were purchased from the Cell Bank of the Chinese Academy of Sciences (Shanghai, China). […] Cisplatin (Abmole Bioscience, Shanghai, China) was used as positive control.
(§2) A total of 180 μL of cancer cells (5 × 10^3) were plated in each well of 96-well plates and cultured for 24 h, then the supernatant of the culture was discarded and 180 μL complete medium with different concentrations of test samples were added into triplicate wells of each cell line, respectively. Thereafter, A549, NCI-H292, SiHa and MKN45 were incubated for 48 h, respectively. The cell viability was evaluated by Cell Counting Kit-8 (CCK-8, Best Bio., Beijing, China), respectively. The experiments were performed in triplicate, and the data were expressed as the means ± SD of three independent experiments.

A549 = experiment: Cytotoxic assay (CCK-8), A549; type: cell-based, human; details: A549, 48 h, mean ± SD (n = 3)
Protocol: as §1, §2

SiHa = experiment: Cytotoxic assay (CCK-8), SiHa; type: cell-based, human; details: 48 h, mean ± SD (n = 3)
Protocol: as §1, §2

NCI-H292 = experiment: Cytotoxic assay (CCK-8), NCI-H292; type: cell-based, human; details: NCI-H292, 48 h, mean ± SD (n = 3)
Protocol: as §1, §2

[3] = DPPH radical scavenging assay; details: for antioxidant activity on DPPH radical scavenging (in words): compared with positive control ascorbic acid; for SC50: concentration required for 50% reduction of DPPH radicals, 37 °C, 30 min, 517 nm, nc = SC50 cannot be calculated due to weak or no related activities
Protocol: The 2, 2-diphenyl-1-picrylhydrazyl (Aldrich Chem. Co. Ltd, Shanghai, China) radical scavenging activity assay was performed according to the previously published method with some modification. Test samples were dissolved in MeOH to six different concentrations ranging from 3.125 to 100 μM. Then, 100 μL of 100 μM DPPH in MeOH were mixed with 100 μL of samples at different concentrations in the wells of 96-well plates. The reaction mixtures were incubated in the dark at 37 °C for 30 min and then measured at 517 nm. Ascorbic acid was used as the positive control. The scavenging activity (SC) was estimated as follows: % SC = [1 − (Asample − Ablank)/Acontrol] ×100. Asample was the equivalent mixture of test sample and DPPH solution. Ablank was the equivalent mixture of test sample and MeOH solution. Acontrol was the equivalent mixture of DPPH and MeOH solution. The SC50 values were used to evaluate the antioxidant activities of isolated compounds. The experiments were performed in triplicate, and the data were expressed as the means ± SD of three independent experiments.

[4] = RAW264.7, RAW 264.7, 1 μg/mL LPS, 24 h, mean ± SD (n = 3)
[5] = Homo sapiens, MKN-45, MKN45, 48 h

Compound	IC50 [1]	IC50 [2, 4]	IC50 (MKN45; MKN45, 48 h)	IC50 (A549)	IC50 (SiHa)	IC50 (NCI-H292)	antioxidant activity on DPPH radical scavenging (in words) [3]	SC50 [3]	IC50 (MKN45; [5])	IC50 (A549; Homo sapiens)	IC50 (SiHa; Homo sapiens)	IC50 (NCI-H292; Homo sapiens)	IC50 ([2]; RAW264.7, 24 h)
O=c1c(O)c(-c2ccc(O)c(O)c2)oc2cc(O)cc(O)c12 [Quercetin, reference compound]	> 50 µM	11.1 ± 1.4 µM											
scopoletin [Compound 28]			52.8 ± 5.3 µM	> 200 µM	> 200 µM	> 200 µM							
COc1cc(C(O)C(CO)Oc2ccc(C(O)C(O)CO)cc2OC)ccc1O (centres unmarked) [Compound 18, 1-(4-hydroxy-3-methoxy)-phenyl-2-[4-(1,2,3-trihydroxypropyl)-2-methoxy]-phenoxy-1,3-propan-diol]	> 200 µM	> 200 µM					weak antioxidant activities; also recorded: moderate activity	127.9 ± 15.4 µM	> 200 µM	> 200 µM	> 200 µM	> 200 µM	
COc1cc(/C=C/C=O)cc(OC)c1O[C@@H]1O[C@H](CO)[C@@H](O)[C@H](O)[C@H]1O [Compound 29, sinapaldehyde glucoside]	> 200 µM								> 200 µM	> 200 µM	> 200 µM	> 200 µM	> 200 µM
COc1cc(C2OCC3C(c4ccc(OC5OC(CO)C(O)C(O)C5O)c(OC)c4)OCC23)ccc1O [Compound 10, pinoresinol-4-O-D-glucoside]	> 200 µM	> 200 µM						30.5 ± 6.5 µM	> 200 µM	> 200 µM	> 200 µM	> 200 µM	
N.N.[Cl][Pt][Cl] [cisplatin, reference compound]			7 ± 0.3 µM	19.5 ± 6.7 µM	7 ± 0.7 µM	52.8 ± 5.3 µM							
CC/C=C\CCO[C@@H]1O[C@H](CO)[C@@H](O)[C@H](O)[C@H]1O[C@@H]1O[C@H](CO)[C@@H](O)[C@H](O)[C@H]1O [Compound 3, (Z)-hex-3-ene 3-O-β-D-glucopyranosyl (1→2)-β-D-glucopyranoside]	> 200 µM	> 200 µM							> 200 µM	> 200 µM	> 200 µM	> 200 µM	
COc1cc(C(O)C(CO)Oc2c(OC)cc(C(O)C(O)CO)cc2OC)ccc1O (stereo not drawn) [Compound 17, (erythro, erythro)-1-[4-[2-hydroxy-2-(4-hydroxy-3-methoxy-phenyl)-1-(hydroxymethyl)ethoxy]-3,5-dimethoxyphenyl]-1,2,3-propanetriol]	> 200 µM	> 200 µM					moderate activity		> 200 µM	> 200 µM	> 200 µM	> 200 µM	
COC/C=C/c1cc(OC)c2c(c1)[C@H](CO)[C@H](c1ccc(O[C@@H]3O[C@H](CO)[C@@H](O)[C@H](O)[C@H]3O)c(OC)c1)O2 [Compound 13, (7S, 8R) 9′-methoxy-dehydrodiconiferyl alcohol 4-O-β-D-glucopyranoside]	> 200 µM	> 200 µM							> 200 µM	> 200 µM	> 200 µM	> 200 µM	
COc1cc(/C=C/CO)cc(OC)c1O[C@@H]1O[C@H](CO)[C@@H](O)[C@H](O)[C@H]1O [Compound 24, syringin]	> 200 µM								> 200 µM	> 200 µM	> 200 µM	> 200 µM	> 200 µM
COc1cc(C2Oc3c(OC)cc(CCCO)cc3C2CO)ccc1OC1OC(CO)C(O)C(O)C1O [Compound 12, dihydrodehydro diconiferyl alcohol 4-O-β-D-glucoside]	> 200 µM	> 200 µM							> 200 µM	> 200 µM	> 200 µM	> 200 µM	
